According to US12110305B2, “Prodrugs of phosphonamide nucleotide analogues and their pharmaceutical use” (priority 2020, dated 2024):
Read-outs that look alike come from different tables or passages of the source.

Tests used:
HIV-1 (IIIB) = assay: Antiviral (HIV) assay in MT-4 cells; assay type: cell-based; conditions: HIV-1 IIIB in MT-4 cells, 5 days incubation, Cell Titer Glo, average of at least two independent experiments
Summary of the method: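 MT-4 cells, infected with HIV-1 IIIB (1:250 dilution of concentrated stock) or mock-infected, were exposed to 1:3 serially diluted compounds in RPMI with 10% FBS. After 5 days at 37° C., CellTiter-Glo luminescence was read. EC50 = concentration causing […], from sigmoidal dose-response fits.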

PBMCs = assay: TFV-DP formation in peripheral blood mononuclear cells (PBMCs); assay type: in vitro ADME, human; conditions: activated PBMCs, 1 μM compound, 50% serum, 2 hrs at 37° C.; intracellular volume 0.2 pL/cell; average of at least two independent experiments
Method: Example 109: TFV-DP Formation in Peripheral Blood Mononuclear Cells (PBMCs)
Compounds were tested in a 96-well assay format for the level of TFV-DP loading in PBMCs in the presence of human serum. PBMCs were activated with 100 units/mL recombinant human […] and 2 μg/mL phytohaemagglutinin (PHA) for 36 hrs. After activation, PBMCs (2 million) were incubated with compounds (1 μM) and cell culture media with 50% serum in a 96 well plate for 2 hrs at 37° C. Cells were transferred to a 96 well deep block plate and spun down. Liquid was removed, and cells were washed 2× with 1 mL of 0.9% saline with spin downs between washes. After a final wash and liquid removal, 500 μL of MeOH+200 nM Cl-ATP+200 nM [adenine-^13C5]-tenofovir diphosphate (tetra ammonium salt) was added and thoroughly mixed with the cells. The plate was then spun down and 450 μL of sample was transferred to a new 96 well plate. Supernatants were then evaporated, reconstituted in 80 μl of 1 mM ammonium phosphate and thoroughly vortexed. Blank samples were pooled for serial dilution to construct calibration standards for TFV, TFV-DP and TFV-TP in pmol/million cells. Samples were then transferred to a short-well 96 well plate, centrifuged and injected on an LC-MS/MS for quantification. Values were reported in μM units using an intracellular volume of 0.2 pL/cell.

MT-4 cells = assay: Cytotoxicity assay in MT-4 cells; assay type: cell-based, human; conditions: uninfected MT-4 cells, 5 days; average of at least two independent experiments; read-out: MT4 CC50
Method: Compounds were tested in a high-throughput 384-well assay format for their ability to inhibit the replication of HIV-1 (IIIB) in MT-4 cells. Compounds were serially diluted (1:3) in DMSO on 384-well polypropylene plates and further diluted 200-fold into complete RPMI media (10% FBS, 1% P/S) using the Biotek Micro Flow and Labcyte ECHO acoustic dispenser. Each plate contained up to 8 test compounds, with negative (no drug) and positive (5 μM AZT) controls. MT-4 cells were pre-treated with 10 μL of either RPMI (mock-infected) or a fresh 1:250 dilution of HIV-1 IIIB concentrated virus stock. Infected and uninfected MT-4 cells were further diluted in complete RPMI media and added to each plate using a Micro Flow dispenser. After 5 days incubation in a humidified and temperature-controlled incubator (37° C.), Cell Titer Glo (Promega) was added to the assay plates and chemiluminescence read using an Envision plate-reader. EC50 values were defined as the compound concentration that causes a 50% decrease in luminescence signal and were calculated using a sigmoidal dose-response model to generate curve fits and are shown in Table 1.
Example 105: Cytotoxicity Assay in MT-4 Cells
Assays were performed as described in Example 104 except uninfected MT-4 cells were added to each well containing test compound. In addition, 10 μM puromycin was added to the last column of each assay plate to assess a base level of cytotoxicity.

PHHs = assay: TFV-DP formation in primary human hepatocytes (PHHs); assay type: in vitro ADME; conditions: 1 μM compound, 1 hour at 37° C., intracellular volume 3 pL/cell, average of at least two independent experiments
Method: Example 110: TFV-DP Formation in Primary Human Hepatocytes (PHHs)
Compounds were tested in a 24-well assay format for the level of TFV-DP formation in PHHs. Cells were seeded (4.0×10^5 cells/well) in collagen coated plates and incubated at 37° C. After 4-6 hours the liquid was removed, 500 μl of new media (2% FBS, 1.5% DMSO) was added, and the cells were incubated at 37° C. overnight. The media is then replaced (2% FBS, 1.0% DMSO), compounds (1 μM) were added and the cells were incubated at 37° C. in the presence of compounds for 1 hour. Media was then removed and cells were washed 2× with 500 μl of 0.9% saline. After a final wash and liquid removal, 500 μL of MeOH+200 nM Cl-ATP+200 nM [adenine-^13C5]-tenofovir diphosphate (tetra ammonium salt) was added and cells were incubated at −80° C. for 30 minutes. The cells were kept on water ice while the MeOH/standard supernatant is pipetted up and down several times and then transferred to a 96 deep-well plate. Supernatants were then evaporated, samples were reconstituted in 80 μl of 1 mM ammonium phosphate and then thoroughly vortexed. Blank samples were pooled for serial dilution to construct calibration standards for TFV, TFV-DP and TFV-TP in pmol/million cells. Samples are then transferred to a short-well 96 well plate, centrifuged and injected on an LC-MS/MS for quantification. […]

[1] = Human immunodeficiency virus 1, MT4, 120 h

Q: How did the EC50 (HIV-1 (IIIB); [1]) turn out when `C[C@H](Cn1cnc2c(N)ncnc21)OCP(=O)(NC(C)(C)C(=O)O[C@H]1CC[C@H](C(C)(C)C)CC1)NC(C)(C)C(=O)O[C@H]1CC[C@H](C(C)(C)C)CC1` [Example 12, Bis(trans-4-(tert-butyl)cyclohexyl) 2,2′-((((((R)-1-(6-amino-9H-purin-9-yl)propan-2-yl)oxy)methyl)phosphoryl)bis(azanediyl))bis(2-methylpropanoate)] was run?
A: The EC50 was 172 nM.

Q: What about the “Average PBMC TFV-DP (μM)” value (PBMCs) of the same compound?
A: The value was “BLQ”.

Q: What does the source list for `C[C@H](Cn1cnc2c(N)ncnc21)OCP(=O)(NC(C)(C)C(=O)OCC1CCC(C)(C)CC1)NC(C)(C)C(=O)OCC1CCC(C)(C)CC1` [Example 13, Bis((4,4-dimethylcyclohexyl)methyl) 2,2′-(((((1-(6-amino-9H-purin-9-yl)propan-2-yl)oxy)methyl)phosphoryl)bis(azanediyl))(R)-bis(2-methylpropanoate)]?
A: EC50 (HIV-1 (IIIB); read-out: MT4 HIV EC50): 16 nM; CC50 (MT-4 cells): 5470 nM; Average PBMC TFV-DP (PBMCs): 2.6 µM

Q: With `C[C@H](Cn1cnc2c(N)ncnc21)OCP(=O)(NC(C)(C)C(=O)OC1CCOCC1)NC(C)(C)C(=O)OC1CCOCC1` [Example 24, Bis(tetrahydro-2H-pyran-4-yl) 2,2′-(((((1-(6-amino-9H-purin-9-yl)propan-2-yl)oxy)methyl)phosphoryl)bis(azanediyl))(R)-bis(2-methylpropanoate)] as the compound, how does the EC50 (HIV-1 (IIIB); [1]) read?
A: Its EC50 is > 500 nM.

Q: What about the “Average PBMC TFV-DP (μM)” value (PBMCs) of the same compound?
A: The value was “BLQ”.

Q: `C[C@H](Cn1cnc2c(N)ncnc21)OCP(=O)(NC(C)(C)C(=O)O[C@H]1CC[C@H](c2ccccc2)CC1)NC(C)(C)C(=O)O[C@H]1CC[C@H](c2ccccc2)CC1` [Example 93, Bis(trans-4-phenylcyclohexyl) 2,2′-((((((R)-1-(6-amino-9H-purin-9-yl)propan-2-yl)oxy)methyl)phosphoryl)bis(azanediyl))bis(2-methylpropanoate)] was tested. Which EC50 (HIV-1 (IIIB); [1]) did it give?
A: Its EC50 is 97 nM.

Q: For `CCCCCCOC(=O)C(C)(C)NP(=O)(CO[C@H](C)Cn1cnc2c(NC(=O)OCCOC(=O)c3ccccc3)ncnc21)NC(C)(C)C(=O)OCCCCCC` [Example 94, Dihexyl 2,2′-(((((1-(6-(((2-(benzoyloxy)ethoxy)carbonyl)amino)-9H-purin-9-yl)propan-2-yl)oxy)methyl)phosphoryl)bis(azanediyl))(R)-bis(2-methylpropanoate)], which EC50 (HIV-1 (IIIB); [1]) is on record?
A: The EC50 was 130 nM.

Q: How did the EC50 (HIV-1 (IIIB); [1]) turn out when `CCCCCCOC(=O)C(C)(C)NP(=O)(CO[C@H](C)Cn1cnc2c(NC(=O)OCC(=O)OCc3oc(=O)oc3C)ncnc21)NC(C)(C)C(=O)OCCCCCC` [Example 95, Dihexyl 2,2′-(((((1-(6-(((2-((5-methyl-2-oxo-1,3-dioxol-4-yl)methoxy)-2-oxoethoxy)carbonyl)amino)-9H-purin-9-yl)propan-2-yl)oxy)methyl)phosphoryl)bis(azanediyl))(R)-bis(2-methylpropanoate)] was run?
A: Its EC50 is 27 nM.

Q: `CCCCCCOC(=O)C(C)(C)NP(=O)(CO[C@H](C)Cn1cnc2c(NC(=O)[C@H]3CCC(=O)O3)ncnc21)NC(C)(C)C(=O)OCCCCCC` [Example 96, Dihexyl 2,2′-((((((R)-1-(6-((R)-5-oxotetrahydrofuran-2-carboxamido)-9H-purin-9-yl)propan-2-yl)oxy)methyl)phosphoryl)bis(azanediyl))bis(2-methylpropanoate)] was tested. Which EC50 (HIV-1 (IIIB); [1]) did it give?
A: The EC50 was 11 nM.

Q: What does the source list for `CCCCCCOC(=O)C(C)(C)NP(=O)(CO[C@H](C)Cn1cnc2c(NC(=O)CCCSC(C)=O)ncnc21)NC(C)(C)C(=O)OCCCCCC` [Example 97, Dihexyl 2,2′-(((((1-(6-(4-(acetylthio)butanamido)-9H-purin-9-yl)propan-2-yl)oxy)methyl)phosphoryl)bis(azanediyl))(R)-bis(2-methylpropanoate)]?
A: EC50 (HIV-1 (IIIB); read-out: MT4 HIV EC50): 13 nM; Average PHH TFV-DP (PHHs): 1.60 µM; CC50 (MT-4 cells): 10700 nM; Average PBMC TFV-DP (PBMCs): 1.4 µM

Q: For `CCCCCCOC(=O)C(C)(C)NP(=O)(CO[C@H](C)Cn1cnc2c(NC(=O)OCC(C)(C)C(=O)OCc3oc(=O)oc3C)ncnc21)NC(C)(C)C(=O)OCCCCCC` [Example 98, Dihexyl 2,2′-(((((1-(6-(((2,2-dimethyl-3-((5-methyl-2-oxo-1,3-dioxol-4-yl)methoxy)-3-oxopropoxy)carbonyl)amino)-9H-purin-9-yl)propan-2-yl)oxy)methyl)phosphoryl)bis(azanediyl))(R)-bis(2-methylpropanoate)], which EC50 (HIV-1 (IIIB); [1]) is on record?
A: Its EC50 is 213 nM.

Q: With `CCCCCCOC(=O)C(C)(C)NP(=O)(CO[C@H](C)Cn1cnc2c(NC(=O)CCCC(=O)OCc3oc(=O)oc3C)ncnc21)NC(C)(C)C(=O)OCCCCCC` [Example 99, (5-Methyl-2-oxo-1,3-dioxol-4-yl)methyl 5-[[9-[(2R)-2-[bis[(2-hexoxy-1,1-dimethyl-2-oxo-ethyl)amino]phosphorylmethoxy]propyl]purin-6-yl]amino]-5-oxo-pentanoate] as the compound, how does the EC50 (HIV-1 (IIIB); [1]) read?
A: Its EC50 is 91 nM.

Q: What does the source list for `CCCCCCOC(=O)C(C)(C)NP(=O)(CO[C@H](C)Cn1cnc2c(NC(=O)CC(C)(C)c3c(C)cc(C)cc3OC(C)=O)ncnc21)NC(C)(C)C(=O)OCCCCCC` [Example 100, Dihexyl 2,2′-(((((1-(6-(3-(2-acetoxy-4,6-dimethylphenyl)-3-methylbutanamido)-9H-purin-9-yl)propan-2-yl)oxy)methyl)phosphoryl)bis(azanediyl))(R)-bis(2-methylpropanoate)]?
A: EC50 (HIV-1 (IIIB); read-out: MT4 HIV EC50): 22 nM; Average PHH TFV-DP (PHHs): 4.73 µM; Average PBMC TFV-DP (PBMCs): 1.9 µM

Q: With `CCCCCCOC(=O)C(C)(C)NP(=O)(CO[C@H](C)Cn1cnc2c(NC(=O)OC(C)(C)CC(=O)OCc3oc(=O)oc3C)ncnc21)NC(C)(C)C(=O)OCCCCCC` [Example 101, Dihexyl 2,2′-(((((1-(6-((((2-methyl-4-((5-methyl-2-oxo-1,3-dioxol-4-yl)methoxy)-4-oxobutan-2-yl)oxy)carbonyl)amino)-9H-purin-9-yl)propan-2-yl)oxy)methyl)phosphoryl)bis(azanediyl))(R)-bis(2-methylpropanoate)] as the compound, how does the EC50 (HIV-1 (IIIB); [1]) read?
A: The EC50 was 12 nM.

Q: `CCCCCCOC(=O)C(C)(C)NP(=O)(CO[C@H](C)Cn1cnc2c(NC(=O)CC(C)(C)CC(=O)OCc3oc(=O)oc3C)ncnc21)NC(C)(C)C(=O)OCCCCCC` [Example 102, Dihexyl 2,2′-(((((1-(6-(3,3-dimethyl-5-((5-methyl-2-oxo-1,3-dioxol-4-yl)methoxy)-5-oxopentanamido)-9H-purin-9-yl)propan-2-yl)oxy)methyl)phosphoryl)bis(azanediyl))(R)-bis(2-methylpropanoate)] was tested. Which EC50 (HIV-1 (IIIB); [1]) did it give?
A: Its EC50 is > 500 nM.

Q: What about the “Average PBMC TFV-DP (μM)” value (PBMCs) of the same compound?
A: Its value is “BLQ”.

Q: How did the EC50 (HIV-1 (IIIB); read-out: MT4 HIV EC50) turn out when `C[C@H](Cn1cnc2c(N)ncnc21)OCP(=O)(NC(C)(C)C(=O)OCCc1ccccc1)NC(C)(C)C(=O)OCCc1ccccc1` [Example 103, Diphenethyl 2,2′-(((((1-(6-amino-9H-purin-9-yl)propan-2-yl)oxy)methyl)phosphoryl)bis(azanediyl))(R)-bis(2-methylpropanoate)] was run?
A: Its EC50 is > 500 nM.

Q: And the CC50 (MT-4 cells)?
A: The CC50 was > 42500 nM.

Q: And the “Average PBMC TFV-DP” value (PBMCs)?
A: The value was 0.4 µM.
